# Reference: ChEMBL document CHEMBL4033723, “Succinamide derivatives of melampomagnolide B and their anti-cancer activities” (2017)
# Tests used:
# Type in all cases: functional
# SK-OV-3 = test: Growth inhibition of human SKOV3 cells after 48 hrs by sulforhodamine B assay; conditions: SK-OV-3, 48 h
# RXF 393 = test: Growth inhibition of human RXF393 cells after 48 hrs by sulforhodamine B assay; conditions: RXF 393, 48 h
# SW-620 = test: Growth inhibition of human SW620 cells after 48 hrs by sulforhodamine B assay; conditions: SW-620, 48 h
# SK-MEL-5 = test: Growth inhibition of human SK-MEL-5 cells after 48 hrs by sulforhodamine B assay; conditions: SK-MEL-5, 48 h
# SF-268 = test: Growth inhibition of human SF268 cells after 48 hrs by sulforhodamine B assay; conditions: SF-268, 48 h
# SNB-75 = test: Growth inhibition of human SNB75 cells after 48 hrs by sulforhodamine B assay; conditions: SNB-75, 48 h
# U-251 = test: Growth inhibition of human U251 cells after 48 hrs by sulforhodamine B assay; conditions: U-251, 48 h
# T47D = test: Growth inhibition of human T47D cells after 48 hrs by sulforhodamine B assay
# NCI-H460 = test: Growth inhibition of human NCI-H460 cells after 48 hrs by sulforhodamine B assay; conditions: NCI-H460, 48 h
# NCI-H322M = test: Growth inhibition of human NCI-H322M cells after 48 hrs by sulforhodamine B assay
# MOLT-4 = test: Growth inhibition of human MOLT4 cells after 48 hrs by sulforhodamine B assay; conditions: MOLT-4, 48 h
# UACC-62 = test: Growth inhibition of human UACC62 cells after 48 hrs by sulforhodamine B assay; conditions: UACC-62, 48 h
# Hs-578T = test: Growth inhibition of human Hs 578T cells after 48 hrs by sulforhodamine B assay
# RPMI-8226 = test: Growth inhibition of human RPMI8226 cells after 48 hrs by sulforhodamine B assay; conditions: RPMI-8226, 48 h
# OVCAR-3 = test: Growth inhibition of human OVCAR3 cells after 48 hrs by sulforhodamine B assay; conditions: OVCAR-3, 48 h
# CAKI-1 = test: Growth inhibition of human Caki1 cells after 48 hrs by sulforhodamine B assay; conditions: CAKI-1, 48 h
# NCI-H23 = test: Growth inhibition of human NCI-H23 cells after 48 hrs by sulforhodamine B assay; conditions: NCI-H23, 48 h
# Malme-3M = test: Growth inhibition of human MALME-3M cells after 48 hrs by sulforhodamine B assay
# A498 = test: Growth inhibition of human A498 cells after 48 hrs by sulforhodamine B assay; conditions: A498, 48 h
# OVCAR-4 = test: Growth inhibition of human OVCAR4 cells after 48 hrs by sulforhodamine B assay; conditions: OVCAR-4, 48 h
# HCT-15 = test: Growth inhibition of human HCT15 cells after 48 hrs by sulforhodamine B assay; conditions: HCT-15, 48 h
# NCI-H522 = test: Growth inhibition of human NCI-H522 cells after 48 hrs by sulforhodamine B assay; conditions: NCI-H522, 48 h
# SF-539 = test: Growth inhibition of human SF539 cells after 48 hrs by sulforhodamine B assay; conditions: SF-539, 48 h
# UACC-257 = test: Growth inhibition of human UACC257 cells after 48 hrs by sulforhodamine B assay; conditions: UACC-257, 48 h
# M14 = test: Growth inhibition of human M14 cells after 48 hrs by sulforhodamine B assay; conditions: M14, 48 h
# SN12C = test: Growth inhibition of human SN12C cells after 48 hrs by sulforhodamine B assay
# UO-31 = test: Growth inhibition of human UO31 cells after 48 hrs by sulforhodamine B assay; conditions: UO-31, 48 h
# SNB-19 = test: Growth inhibition of human SNB19 cells after 48 hrs by sulforhodamine B assay; conditions: SNB-19, 48 h
# 786-0 = test: Growth inhibition of human 786-0 cells after 48 hrs by sulforhodamine B assay; conditions: 786-0, 48 h
# HCT-116 = test: Growth inhibition of human HCT116 cells after 48 hrs by sulforhodamine B assay; conditions: HCT-116, 48 h
# CCRF-CEM = test: Growth inhibition of human CCRF-CEM cells after 48 hrs by sulforhodamine B assay
# K562 = test: Growth inhibition of human K562 cells after 48 hrs by sulforhodamine B assay; conditions: K562, 48 h
# NCI/ADR-RES = test: Growth inhibition of human NCI-ADR-RES cells after 48 hrs by sulforhodamine B assay
# OVCAR-5 = test: Growth inhibition of human OVCAR5 cells after 48 hrs by sulforhodamine B assay; conditions: OVCAR-5, 48 h
# HOP-92 = test: Growth inhibition of human HOP92 cells after 48 hrs by sulforhodamine B assay; conditions: HOP-92, 48 h
# HL-60(TB) = test: Growth inhibition of human HL-60(TB) cells after 48 hrs by sulforhodamine B assay; conditions: HL-60, 48 h
# A549 = test: Growth inhibition of human A549/ATCC cells after 48 hrs by sulforhodamine B assay; conditions: A549, 48 h
# LOX IMVI = test: Growth inhibition of human LOXIMVI cells after 48 hrs by sulforhodamine B assay
# PC-3 = test: Growth inhibition of human PC3 cells after 48 hrs by sulforhodamine B assay; conditions: PC-3, 48 h
# MDA-MB-435 = test: Growth inhibition of human MDA-MB-435 cells after 48 hrs by sulforhodamine B assay; conditions: MDA-MB-435, 48 h
# SF-295 = test: Growth inhibition of human SF295 cells after 48 hrs by sulforhodamine B assay; conditions: SF-295, 48 h
# HT-29 = test: Growth inhibition of human HT-29 cells after 48 hrs by sulforhodamine B assay; conditions: HT-29, 48 h
# NCI-H226 = test: Growth inhibition of human NCI-H226 cells after 48 hrs by sulforhodamine B assay; conditions: NCI-H226, 48 h
# KM12 = test: Growth inhibition of human KM12 cells after 48 hrs by sulforhodamine B assay; conditions: KM12, 48 h
# SR = test: Growth inhibition of human SR cells after 48 hrs by sulforhodamine B assay
# COLO 205 = test: Growth inhibition of human COLO205 cells after 48 hrs by sulforhodamine B assay; conditions: COLO 205, 48 h
# HCC 2998 = test: Growth inhibition of human HCC2998 cells after 48 hrs by sulforhodamine B assay; conditions: HCC 2998, 48 h
# [1] = Growth inhibition of human M9-ENL1 cells after 24 hrs by trypan blue assay; conditions: M9-ENL1, 24 h
# [2] = Induction of apoptosis in human M9-ENL1 cells assessed as cell death after 24 hrs by Annexin V/PI or 7-AAD staining based flow cytometry; conditions: M9-ENL1, 24 h, read-out: LC50 (the source's name)
# TK-10 = test: Growth inhibition of human TK10 cells after 48 hrs by sulforhodamine B assay; conditions: TK-10, 48 h
# SK-MEL-2 = test: Growth inhibition of human SK-MEL-2 cells after 48 hrs by sulforhodamine B assay; conditions: SK-MEL-2, 48 h
# ACHN = test: Growth inhibition of human ACHN cells after 48 hrs by sulforhodamine B assay
# MDA-MB-231 = test: Growth inhibition of human MDA-MB-231 cells after 48 hrs by sulforhodamine B assay; conditions: MDA-MB-231, 48 h
# DU-145 = test: Growth inhibition of human DU145 cells after 48 hrs by sulforhodamine B assay; conditions: DU-145, 48 h
# BT-549 = test: Growth inhibition of human BT549 cells after 48 hrs by sulforhodamine B assay; conditions: BT-549, 48 h
# OVCAR-8 = test: Growth inhibition of human OVCAR8 cells after 48 hrs by sulforhodamine B assay; conditions: OVCAR-8, 48 h
# SK-MEL-28 = test: Growth inhibition of human SK-MEL-28 cells after 48 hrs by sulforhodamine B assay; conditions: SK-MEL-28, 48 h
# MDA-MB-468 = test: Growth inhibition of human MDA-MB-468 cells after 48 hrs by sulforhodamine B assay; conditions: MDA-MB-468, 48 h
# MCF7 = test: Growth inhibition of human MCF7 cells after 48 hrs by sulforhodamine B assay; conditions: MCF7, 48 h
compound,measurement,setting,value
C=C1C(=O)O[C@H]2[C@H]1CC/C(COC(=O)CCC(=O)NCCCCCCCCNC(=O)CCC(=O)OC/C1=C/CC[C@@]3(C)O[C@H]3[C@H]3OC(=O)C(=C)[C@@H]3CC1)=C\CC[C@@]1(C)O[C@@H]21,GI50,SK-OV-3,6450 nM
same,GI50,RXF 393,850 nM
same,GI50,SW-620,1220 nM
same,GI50,SK-MEL-5,3130 nM
same,GI50,SF-268,3340 nM
same,GI50,SNB-75,2020 nM
same,GI50,U-251,3030 nM
same,GI50,T47D,1510 nM
same,GI50,NCI-H460,5000 nM
same,GI50,NCI-H322M,16300 nM
same,GI50,MOLT-4,2110 nM
same,GI50,UACC-62,1970 nM
same,GI50,Hs-578T,3880 nM
same,GI50,RPMI-8226,1670 nM
same,GI50,OVCAR-3,1500 nM
same,GI50,CAKI-1,12700 nM
same,GI50,NCI-H23,2990 nM
same,GI50,Malme-3M,2040 nM
same,GI50,A498,6720 nM
same,GI50,OVCAR-4,1640 nM
same,GI50,HCT-15,3600 nM
same,GI50,NCI-H522,480 nM
same,GI50,SF-539,2430 nM
same,GI50,UACC-257,1760 nM
same,GI50,M14,1790 nM
same,GI50,SN12C,3740 nM
same,GI50,UO-31,10900 nM
same,GI50,SNB-19,4150 nM
same,GI50,786-0,1620 nM
same,GI50,HCT-116,1540 nM
same,GI50,CCRF-CEM,320 nM
same,GI50,K562,970 nM
same,GI50,NCI/ADR-RES,33500 nM
same,GI50,OVCAR-5,1820 nM
same,GI50,HOP-92,1580 nM
same,GI50,HL-60(TB),630 nM
same,GI50,A549,18500 nM
same,GI50,LOX IMVI,1370 nM
same,GI50,PC-3,3640 nM
same,GI50,MDA-MB-435,1800 nM
same,GI50,SF-295,15100 nM
same,GI50,HT-29,1640 nM
same,GI50,NCI-H226,2060 nM
same,GI50,KM12,9460 nM
same,GI50,SR,410 nM
same,GI50,COLO 205,1350 nM
same,GI50,HCC 2998,4120 nM
same,GI50,[1],1000 nM
same,CC50,[2],11000 nM
same,GI50,TK-10,20800 nM
same,GI50,SK-MEL-2,2250 nM
same,GI50,ACHN,3130 nM
same,GI50,MDA-MB-231,1970 nM
same,GI50,DU-145,1920 nM
same,GI50,BT-549,1230 nM
same,GI50,OVCAR-8,2900 nM
same,GI50,SK-MEL-28,1650 nM
same,GI50,MDA-MB-468,1330 nM
same,GI50,MCF7,770 nM
C=C1C(=O)O[C@H]2[C@H]1CC/C(COC(=O)CCC(=O)NCCCCCCCCCNC(=O)CCC(=O)OC/C1=C/CC[C@@]3(C)O[C@H]3[C@H]3OC(=O)C(=C)[C@@H]3CC1)=C\CC[C@@]1(C)O[C@@H]21,GI50,SK-OV-3,5800 nM
same,GI50,RXF 393,1010 nM
same,GI50,SW-620,540 nM
same,GI50,SK-MEL-5,1880 nM
same,GI50,SF-268,2920 nM
same,GI50,SNB-75,1470 nM
same,GI50,U-251,3010 nM
same,GI50,T47D,1490 nM
same,GI50,NCI-H460,2180 nM
same,GI50,NCI-H322M,16300 nM
same,GI50,MOLT-4,640 nM
same,GI50,UACC-62,1690 nM
same,GI50,Hs-578T,2990 nM
same,GI50,RPMI-8226,500 nM
same,GI50,OVCAR-3,1290 nM
same,GI50,CAKI-1,10500 nM
same,GI50,NCI-H23,2230 nM
same,GI50,Malme-3M,1940 nM
same,GI50,A498,2720 nM
same,GI50,OVCAR-4,1480 nM
same,GI50,HCT-15,2630 nM
same,GI50,NCI-H522,420 nM
same,GI50,SF-539,1850 nM
same,GI50,UACC-257,2060 nM
same,GI50,M14,1650 nM
same,GI50,SN12C,2690 nM
same,GI50,UO-31,3900 nM
same,GI50,SNB-19,3380 nM
same,GI50,786-0,1490 nM
same,GI50,HCT-116,860 nM
same,GI50,CCRF-CEM,280 nM
same,GI50,K562,450 nM
same,GI50,NCI/ADR-RES,26700 nM
same,GI50,OVCAR-5,1700 nM
same,GI50,HOP-92,1400 nM
same,GI50,HL-60(TB),440 nM
same,GI50,A549,13800 nM
same,GI50,LOX IMVI,370 nM
same,GI50,PC-3,2530 nM
same,GI50,MDA-MB-435,1630 nM
same,GI50,SF-295,7680 nM
same,GI50,HT-29,1330 nM
same,GI50,NCI-H226,1900 nM
same,GI50,KM12,4600 nM
same,GI50,SR,330 nM
same,GI50,COLO 205,1220 nM
same,GI50,HCC 2998,2250 nM
same,GI50,[1],440 nM
same,CC50,[2],6500 nM
same,GI50,TK-10,1780 nM
same,GI50,SK-MEL-2,2120 nM
same,GI50,ACHN,2100 nM
same,GI50,MDA-MB-231,1580 nM
same,GI50,DU-145,1750 nM
same,GI50,BT-549,660 nM
same,GI50,OVCAR-8,3240 nM
same,GI50,SK-MEL-28,1470 nM
same,GI50,MDA-MB-468,980 nM
same,GI50,MCF7,420 nM
